Data reported in the NIST ThermoML archive (doi:10.1021/je501054c).
Values joined by “and” are separate entries in the source; they are usually repeats but may differ in a detail not shown here. Identical values can stand only once.

Test: mn = molality of the nth substance listed, in mol/kg
Settings: 100 kPa, Liquid; for viscosity: Capillary tube (Ostwald / Ubbelohde) method; for mass density: Vibrating tube method

C(=NCCN=Cc1ccccn1)c1ccccn1 [N,N'-bis(2-pyridinylmethylene)-1,2-ethanediamine] + CC#N
Settings	mass density, 298.15 K	mass density, 303.15 K	mass density, 308.15 K	mass density, 313.15 K	viscosity, 298.15 K
m1 = 0.0396	–	–	–	–	0.3511 mPa·s
m1 = 0.0397	778.8 kg/m3	770.6 kg/m3	762.7 kg/m3	754.02 kg/m3	0.359 mPa·s
m1 = 0.0412	778.98 kg/m3 and 778.99 kg/m3	773.9 kg/m3 and 773.55 kg/m3	765.55 kg/m3 and 766.66 kg/m3	759.53 kg/m3 and 758.9 kg/m3	0.352 mPa·s and 0.368 mPa·s
m1 = 0.0707	781 kg/m3	775.97 kg/m3	767.82 kg/m3	761.2 kg/m3	0.372 mPa·s
m1 = 0.076	781.24 kg/m3	772.52 kg/m3	764.1 kg/m3	756.48 kg/m3	0.3695 mPa·s
m1 = 0.0794	781.36 kg/m3	775.79 kg/m3	769.83 kg/m3	761.42 kg/m3	0.367 mPa·s
m1 = 0.085	781.2 kg/m3	776.45 kg/m3	769.8 kg/m3	762.5 kg/m3	0.357 mPa·s
m1 = 0.1109	783.49 kg/m3	778.35 kg/m3	771.54 kg/m3	764.87 kg/m3	0.381 mPa·s
m1 = 0.1136	783.49 kg/m3	778.33 kg/m3	771.48 kg/m3	764.85 kg/m3	0.368 mPa·s
m1 = 0.1159	783.49 kg/m3	775.25 kg/m3	767.32 kg/m3	759.62 kg/m3	0.374 mPa·s
m1 = 0.1172	783.63 kg/m3	777.74 kg/m3	772.75 kg/m3	767.66 kg/m3	0.374 mPa·s
m1 = 0.1441	785.8 kg/m3	780.11 kg/m3	774.3 kg/m3	767.8 kg/m3	0.397 mPa·s
m1 = 0.1487	786.71 kg/m3	778.7 kg/m3	769.46 kg/m3	761.79 kg/m3	0.395 mPa·s
m1 = 0.1539	785.86 kg/m3	780.33 kg/m3	775.54 kg/m3	770.79 kg/m3	0.381 mPa·s
m1 = 0.1655	785.87 kg/m3	780.09 kg/m3	774.28 kg/m3	767.87 kg/m3	0.375 mPa·s
m1 = 0.396	779.08 kg/m3	773.62 kg/m3	766.62 kg/m3	760.23 kg/m3	–
